Calls of active or inactive are those of the source. No cut-off for these calls is given here.

For orientation: IC50 means the point on the concentration scale where inhibition reaches its midpoint. Broadly, the EC50 is the concentration at which the effect is half-maximal. A high value points to weaker potency. Broadly, the bioavailability is the share of a dose that reaches the circulation, judged against a reference dose that is usually intravenous. Low readings indicate poor availability, high ones good availability. Usually fraction unbound stands for the share of the substance not bound to proteins or other matrix. A high value points to much free substance. As a reminder, the Cmax is the peak of the concentration-time curve. As a reminder, the AUC(0-t) is the area under the concentration-time curve up to a stated or last time point.

Series [1] concerns the target T1, Kinesin-like protein KIF18A (Homo sapiens, UniProt Q8NI77).
T1 sequence (Q8NI77 whole entry): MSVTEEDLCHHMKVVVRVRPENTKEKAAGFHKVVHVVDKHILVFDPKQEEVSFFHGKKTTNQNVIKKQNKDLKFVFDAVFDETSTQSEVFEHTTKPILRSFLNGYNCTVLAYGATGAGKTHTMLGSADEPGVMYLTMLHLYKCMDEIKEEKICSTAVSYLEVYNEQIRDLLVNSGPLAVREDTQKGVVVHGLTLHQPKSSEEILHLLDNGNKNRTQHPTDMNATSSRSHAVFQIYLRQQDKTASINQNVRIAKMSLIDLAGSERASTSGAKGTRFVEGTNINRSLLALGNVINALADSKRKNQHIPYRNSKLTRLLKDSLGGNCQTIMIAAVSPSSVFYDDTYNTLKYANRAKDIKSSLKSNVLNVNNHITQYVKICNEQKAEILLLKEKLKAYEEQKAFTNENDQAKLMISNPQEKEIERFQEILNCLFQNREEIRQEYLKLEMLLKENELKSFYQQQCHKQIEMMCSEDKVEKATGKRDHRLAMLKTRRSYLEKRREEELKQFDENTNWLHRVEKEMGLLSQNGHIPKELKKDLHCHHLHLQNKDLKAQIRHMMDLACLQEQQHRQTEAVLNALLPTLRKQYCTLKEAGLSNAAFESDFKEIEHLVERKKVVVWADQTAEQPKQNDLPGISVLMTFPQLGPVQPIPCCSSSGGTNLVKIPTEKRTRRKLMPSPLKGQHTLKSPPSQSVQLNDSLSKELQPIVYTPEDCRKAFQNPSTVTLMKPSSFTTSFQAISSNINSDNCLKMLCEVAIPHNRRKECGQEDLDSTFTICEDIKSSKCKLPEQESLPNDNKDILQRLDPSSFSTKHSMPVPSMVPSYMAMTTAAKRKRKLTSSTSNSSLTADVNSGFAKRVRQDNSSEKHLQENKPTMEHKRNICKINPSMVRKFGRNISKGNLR
Nature of the series: Inhibition of recombinant His-tagged human KIF18A (1 to 467 residues) expressed in Trichoplusia ni insect cells assessed as inhibition of microtubule-stimulated ATPase activity preincubated for 30 mins followed by ATP addition and further incubated for 15 mins by ADP-Glo reagent based assay. More on the design: species or system Insect cell. (ADP-Glo first removes unused ATP, then detects ADP through luciferase.)

For series [2], the target named is T2, Kinesin-like protein KIF11 (Homo sapiens, UniProt P52732).
T2 sequence (P52732 whole entry): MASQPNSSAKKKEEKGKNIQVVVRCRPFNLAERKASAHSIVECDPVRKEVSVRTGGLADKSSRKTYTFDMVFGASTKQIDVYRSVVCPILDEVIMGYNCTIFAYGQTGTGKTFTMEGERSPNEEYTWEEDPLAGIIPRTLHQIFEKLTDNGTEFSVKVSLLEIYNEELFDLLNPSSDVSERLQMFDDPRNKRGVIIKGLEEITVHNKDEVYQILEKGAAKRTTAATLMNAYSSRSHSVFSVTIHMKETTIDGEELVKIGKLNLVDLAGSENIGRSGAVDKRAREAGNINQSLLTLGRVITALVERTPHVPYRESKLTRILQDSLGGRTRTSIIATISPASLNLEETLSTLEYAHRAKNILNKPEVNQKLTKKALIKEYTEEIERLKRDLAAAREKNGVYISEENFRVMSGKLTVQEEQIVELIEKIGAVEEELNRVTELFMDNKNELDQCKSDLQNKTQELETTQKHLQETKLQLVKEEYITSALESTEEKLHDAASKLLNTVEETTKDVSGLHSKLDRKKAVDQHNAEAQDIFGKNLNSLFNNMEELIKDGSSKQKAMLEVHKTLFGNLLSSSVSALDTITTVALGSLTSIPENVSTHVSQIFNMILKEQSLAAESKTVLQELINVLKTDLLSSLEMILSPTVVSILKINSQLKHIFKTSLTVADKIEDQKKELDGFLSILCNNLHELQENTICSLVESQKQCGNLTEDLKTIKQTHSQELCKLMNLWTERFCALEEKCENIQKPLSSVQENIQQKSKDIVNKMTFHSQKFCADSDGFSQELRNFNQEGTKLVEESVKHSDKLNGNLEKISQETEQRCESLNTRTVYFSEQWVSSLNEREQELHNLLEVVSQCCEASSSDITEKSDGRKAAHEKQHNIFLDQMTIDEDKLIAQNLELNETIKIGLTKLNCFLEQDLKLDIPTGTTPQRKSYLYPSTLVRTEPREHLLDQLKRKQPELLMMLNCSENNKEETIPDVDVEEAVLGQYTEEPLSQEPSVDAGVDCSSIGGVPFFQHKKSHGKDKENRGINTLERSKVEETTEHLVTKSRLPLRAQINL
Nature of the series: Inhibition of recombinant GST-tagged human Eg5 assessed as inhibition of microtubule-stimulated ATPase activity preincubated for 30 mins followed by ATP addition and further incubated for 15 mins by ADP-Glo reagent based assay.

Series [3] addresses Centromere-associated protein E (Homo sapiens, UniProt Q02224). Nature of the series: Inhibition of recombinant GST-tagged human CENP-E assessed as inhibition of microtubule-stimulated ATPase activity preincubated for 30 mins followed by ATP addition and further incubated for 15 mins by ADP-Glo reagent based assay.
The next series has as its system MDA-MB-157. Nature of the series: Induction of mitotic arrest in TP53 mutant human MDA-MB-157 cells assessed as multipolar spindle arrays by measuring pericentriolar material incubated for 24 hrs by mitotic index assay. The class given is functional, cell-based. As to conditions: MDA-MB-157, 24 h.
Series [4] concerns OVCAR-3. Nature of the series: Antiproliferative activity against human OVCAR-3 cells by nuclear count assay. The class given is functional, cell-based.
The nature of series [5]: Clearance in CD-1 mouse at 1 mg/kg, iv and 10 mg/kg, po. The class given is ADME, organism-based. The note with it: in vivo.
A short description of series [6]: Volume of distribution at steady state in CD-1 mouse at 1 mg/kg, iv and 10 mg/kg, po. As to conditions: in vivo. Type of series: ADME, organism-based.
A short description of series [7]: Oral bioavailability in CD-1 mouse at 10 mg/kg. The class given is ADME, organism-based. As to conditions: in vivo.
Series [8] is described as follows: Unbound fraction in plasma (unknown origin) by ultracentrifugation. The class given is ADME, cell-free.
Series [9] is described as follows: Plasma concentration in CD-1 mouse xenografted with human OVCAR-3 cells at 100 mg/kg, po measured after 8 hrs. The class given is ADME, organism-based.
A short description of series [10]: Drug uptake in CD-1 mouse xenografted with human OVCAR-3 cells measured in tumor at 100 mg/kg, po measured after 8 hrs. Type of series: ADME, organism-based, Neoplasm. As to conditions: read-out: Drug uptake. (In general: Xenograft models place foreign cells or tissue in a host animal.)
In series [11] the test system is OVCAR-3. Nature of the series: Antimitotic activity in human OVCAR-3 cells xenografted in CD-1 mouse assessed as increase in phospho-histone H3 positive cells in tumor at 100 mg/kg, po measured after 24 hrs. The class given is functional, organism-based.
Series [12] can be described thus: Passive permeability across apical to basolateral side in dog MDCK-MDR1 cells at 5 uM. Type of series: ADME, cell-based, Canis lupus familiaris. The note with it: read-out: permeability.
Series [13] is described as follows: Plasma concentration in CD-1 mouse xenografted with human OVCAR-3 cells at 100 mg/kg, po measured upto 24 hrs by LC-MS/MS analysis. The class given is ADME, organism-based.
A short description of series [14]: Cmax in CD-1 mouse xenografted with human OVCAR-3 cells at 100 mg/kg, ip by LC-MS/MS analysis. The class given is ADME, organism-based. More on the design: dose 100 mg/kg, route ip. As to conditions: in vivo.
Series [15] can be described thus: AUC (0 to 24 hrs) in CD-1 mouse xenografted with human OVCAR-3 cells at 100 mg/kg, ip by LC-MS/MS analysis. Type of series: ADME, organism-based. As to conditions: in vivo. More on the design: dose 100 mg/kg, route ip.

Chain of Centromere-associated protein E (Q02224 whole entry): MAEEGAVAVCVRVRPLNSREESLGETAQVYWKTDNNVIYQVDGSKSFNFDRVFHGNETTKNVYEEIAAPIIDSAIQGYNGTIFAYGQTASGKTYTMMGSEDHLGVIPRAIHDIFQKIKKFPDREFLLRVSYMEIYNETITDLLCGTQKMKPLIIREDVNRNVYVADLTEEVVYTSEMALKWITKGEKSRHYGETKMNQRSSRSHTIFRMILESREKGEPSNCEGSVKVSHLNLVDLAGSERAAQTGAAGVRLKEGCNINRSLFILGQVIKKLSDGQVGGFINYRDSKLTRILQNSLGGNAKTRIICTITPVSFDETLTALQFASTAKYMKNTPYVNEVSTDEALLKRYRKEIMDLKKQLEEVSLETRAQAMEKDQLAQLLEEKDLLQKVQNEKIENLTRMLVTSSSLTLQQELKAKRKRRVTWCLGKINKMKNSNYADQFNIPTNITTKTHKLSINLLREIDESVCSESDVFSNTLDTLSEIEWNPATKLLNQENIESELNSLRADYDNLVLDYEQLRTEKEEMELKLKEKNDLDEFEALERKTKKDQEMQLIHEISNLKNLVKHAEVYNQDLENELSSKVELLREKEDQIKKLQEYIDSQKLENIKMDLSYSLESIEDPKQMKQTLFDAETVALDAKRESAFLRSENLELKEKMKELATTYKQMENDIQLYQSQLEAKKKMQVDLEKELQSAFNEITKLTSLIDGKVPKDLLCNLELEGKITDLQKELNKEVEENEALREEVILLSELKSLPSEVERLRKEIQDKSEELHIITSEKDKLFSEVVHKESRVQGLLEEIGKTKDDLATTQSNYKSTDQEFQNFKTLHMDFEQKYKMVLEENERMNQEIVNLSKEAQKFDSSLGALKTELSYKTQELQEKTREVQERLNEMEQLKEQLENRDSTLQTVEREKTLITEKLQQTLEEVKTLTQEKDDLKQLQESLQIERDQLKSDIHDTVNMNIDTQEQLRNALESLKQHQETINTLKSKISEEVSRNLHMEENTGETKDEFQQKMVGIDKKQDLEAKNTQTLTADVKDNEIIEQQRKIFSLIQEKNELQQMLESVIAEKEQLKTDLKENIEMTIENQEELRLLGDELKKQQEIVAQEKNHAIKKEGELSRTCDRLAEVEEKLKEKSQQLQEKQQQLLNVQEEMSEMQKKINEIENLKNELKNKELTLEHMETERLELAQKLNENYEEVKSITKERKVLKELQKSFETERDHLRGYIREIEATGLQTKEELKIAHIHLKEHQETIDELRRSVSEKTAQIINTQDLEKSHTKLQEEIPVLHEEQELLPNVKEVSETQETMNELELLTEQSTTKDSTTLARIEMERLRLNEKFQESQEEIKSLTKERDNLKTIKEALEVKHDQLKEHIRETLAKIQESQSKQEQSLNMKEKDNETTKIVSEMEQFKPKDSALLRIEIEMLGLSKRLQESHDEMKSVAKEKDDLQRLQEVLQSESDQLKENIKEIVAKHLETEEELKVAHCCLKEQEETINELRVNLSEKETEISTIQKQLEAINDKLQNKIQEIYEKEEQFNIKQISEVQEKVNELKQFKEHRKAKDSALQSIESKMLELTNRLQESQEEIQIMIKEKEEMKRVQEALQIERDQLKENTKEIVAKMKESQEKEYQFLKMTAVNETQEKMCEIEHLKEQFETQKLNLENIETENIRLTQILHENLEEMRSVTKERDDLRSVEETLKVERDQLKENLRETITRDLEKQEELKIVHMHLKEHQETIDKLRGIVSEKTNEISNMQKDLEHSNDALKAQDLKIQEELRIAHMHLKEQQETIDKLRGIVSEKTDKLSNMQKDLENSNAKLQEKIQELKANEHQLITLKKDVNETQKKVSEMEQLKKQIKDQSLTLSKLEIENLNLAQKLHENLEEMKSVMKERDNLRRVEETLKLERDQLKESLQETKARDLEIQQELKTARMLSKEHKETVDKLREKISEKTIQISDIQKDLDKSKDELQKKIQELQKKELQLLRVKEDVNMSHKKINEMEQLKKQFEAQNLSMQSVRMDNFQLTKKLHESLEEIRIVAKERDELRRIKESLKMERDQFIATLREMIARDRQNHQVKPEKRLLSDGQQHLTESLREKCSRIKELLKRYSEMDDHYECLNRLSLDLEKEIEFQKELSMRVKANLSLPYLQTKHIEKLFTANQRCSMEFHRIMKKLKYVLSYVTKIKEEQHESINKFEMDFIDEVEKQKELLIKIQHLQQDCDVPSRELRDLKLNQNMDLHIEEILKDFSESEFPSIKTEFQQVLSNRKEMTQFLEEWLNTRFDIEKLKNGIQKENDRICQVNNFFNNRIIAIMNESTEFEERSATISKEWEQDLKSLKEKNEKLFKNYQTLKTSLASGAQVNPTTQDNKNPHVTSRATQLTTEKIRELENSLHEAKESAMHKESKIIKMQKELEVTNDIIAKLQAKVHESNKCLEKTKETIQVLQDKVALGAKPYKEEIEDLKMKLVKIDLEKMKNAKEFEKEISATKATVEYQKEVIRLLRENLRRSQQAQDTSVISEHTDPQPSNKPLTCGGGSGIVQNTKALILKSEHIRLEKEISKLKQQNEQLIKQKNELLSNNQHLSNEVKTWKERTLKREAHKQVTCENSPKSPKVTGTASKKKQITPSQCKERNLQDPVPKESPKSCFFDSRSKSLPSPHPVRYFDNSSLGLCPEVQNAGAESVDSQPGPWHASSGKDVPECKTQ

On to `CC(C)(C)NS(=O)(=O)c1cccc(NC(=O)c2ncc(NS(C)(=O)=O)nc2N2CCC3(CC2)CC3)n1`, for which the IC50 in series [1] was 96 nM; in series [2], greater than 100000 nM; in [3] it was 86000 nM; with MDA-MB-157 it was 32 nM. Further, the EC50 in the series on OVCAR-3 [4] was 32 nM. Besides, the CL in [5] was found to be 23.3 mL/min/kg. The Vdss in series [6] turned out to be 2 L/kg. In addition, the bioavailability in series [7] worked out at 35%. The compound further displayed an unbound share (fraction unbound) in series [8] of 0.022. Also, the concentration at 8 h was 5.7 µM in series [9] and 17.5 µM in series [10]. Also, in the series with OVCAR-3 [11], the outcome was inactive. The Papp A→B at 5 µM in [12] was less than 0.3 ×10⁻⁶ cm/s. The compound further displayed a concentration at 24 h in series [13] of 0.016 µM. In addition, in series [14], the highest level (Cmax) was 22.6 µM. In [15], this compound registered an AUC(0-t) of 116 µM·h.

The record behind these values is ChEMBL document CHEMBL5223091, “Targeting the Mitotic Kinesin KIF18A in Chromosomally Unstable Cancers: Hit Optimization Toward an In Vivo Chemical Probe” (J Med Chem, 2022).
